Tests used:
JAK1 = JAK1 (Homo sapiens (Human), UniProt P23458); assay: LanthaScreen JAK biochemical assay, JAK1
Method: (§1) A panel of four LanthaScreen JAK biochemical assays (JAK1, 2, 3 and Tyk2) were carried in a common kinase reaction buffer (50 mM HEPES, pH 7.5, 0.01% Brij-35, 10 mM MgCl2, and 1 mM EGTA). Recombinant GST-tagged JAK enzymes and a GFP-tagged STAT1 peptide substrate were obtained from Life Technologies.

JAK2 = JAK2 (Homo sapiens (Human), UniProt O60674); assay: LanthaScreen JAK biochemical assay, JAK2
Method: as §1

Tyk2 = Tyk2 (Homo sapiens (Human), UniProt P29597); assay: LanthaScreen JAK biochemical assay, Tyk2
Method: as §1

JAK3 = JAK3 (Homo sapiens (Human), UniProt P52333); assay: LanthaScreen JAK biochemical assay, JAK3
Method: as §1

[1] = test system: IL-13 induced STAT6 phosphorylation in HT-29 human colorectal adenocarcinoma cells; assay: Cellular JAK potency assay: inhibition of IL-13 induced STAT6 phosphorylation; type: cell-based; conditions: IL-13 induced STAT6 phosphorylation, HT-29 cells
Method: The potency of test compounds for inhibition of the JAK-dependent cytokine interleuken-13 (IL-13) was assessed by measuring IL-13 (IL-13, R&D Systems) induced STAT6 phosphorylation in HT-29 human colorectal adenocarcinoma cells (ATCC).
The anti-STAT6 antibody (Cell Signaling Technologies) was conjugated to AlphaScreen acceptor beads (Perkin Elmer), while the anti-pSTAT6 (pTyr641) antibody (Cell Signaling Technologies) was biotinylated using EZ-Link Sulfo-NHS-Biotin (Thermo Scientific).
HT-29 cells were grown at 37° C. in a 5% CO2 humidified incubator in McCoy's 5a Modified medium (ATCC) supplemented with 10% FBS (Hyclone), 100 U/mL penicillin, 100 μg/mL streptomycin (Life Technologies), and 2 mM GlutaMAX (Life Technologies). On day 1 of the assay, cells were seeded at a 7,500 cells/well density in white poly-D-lysine-coated 384-well plates (Corning) with 25 μL medium, and were allowed to adhere overnight in the incubator. On day 2 of the assay, the medium was removed and replaced with 12 μL of assay buffer (Hank's Balanced Salt Solution/HBSS, 25 mM HEPES, and 1 mg/ml bovine serum albumin/BSA) containing dose-responses of test compounds. Compounds were serially diluted in DMSO and then diluted another 1000-fold in media to bring the final DMSO concentration to 0.1%. Cells were incubated with test compounds at 37° C. for 1 h, and followed by the addition of 12 μL of pre-warmed IL-13 (12 ng/ml in assay buffer) for stimulation. After incubating at 37° C. for 30 min, the assay buffer (containing compound and IL-13) was removed, and 10 μL of cell lysis buffer (25 mM HEPES, 0.1% SDS, 1% NP-40, 5 mM MgCl2, 1.3 mM EDTA, 1 mM EGTA, and supplement with Complete Ultra mini protease inhibitors and PhosSTOP from Roche Diagnostics). The plates were shaken at ambient temperature for 30 min before the addition of detection reagents. A mixture of biotin-anti-pSTAT6 and anti-STAT6 conjugated acceptor beads was added first and incubated at ambient temperature for 2 h, followed by the addition of streptavidin conjugated donor beads (Perkin Elmer). After a minimum of 2 h incubation, the assay plates were read on the EnVision plate reader.
Results were expressed as the negative logarithm of the IC50 value, pIC50.

Tyk2, sequence (P29597 whole entry): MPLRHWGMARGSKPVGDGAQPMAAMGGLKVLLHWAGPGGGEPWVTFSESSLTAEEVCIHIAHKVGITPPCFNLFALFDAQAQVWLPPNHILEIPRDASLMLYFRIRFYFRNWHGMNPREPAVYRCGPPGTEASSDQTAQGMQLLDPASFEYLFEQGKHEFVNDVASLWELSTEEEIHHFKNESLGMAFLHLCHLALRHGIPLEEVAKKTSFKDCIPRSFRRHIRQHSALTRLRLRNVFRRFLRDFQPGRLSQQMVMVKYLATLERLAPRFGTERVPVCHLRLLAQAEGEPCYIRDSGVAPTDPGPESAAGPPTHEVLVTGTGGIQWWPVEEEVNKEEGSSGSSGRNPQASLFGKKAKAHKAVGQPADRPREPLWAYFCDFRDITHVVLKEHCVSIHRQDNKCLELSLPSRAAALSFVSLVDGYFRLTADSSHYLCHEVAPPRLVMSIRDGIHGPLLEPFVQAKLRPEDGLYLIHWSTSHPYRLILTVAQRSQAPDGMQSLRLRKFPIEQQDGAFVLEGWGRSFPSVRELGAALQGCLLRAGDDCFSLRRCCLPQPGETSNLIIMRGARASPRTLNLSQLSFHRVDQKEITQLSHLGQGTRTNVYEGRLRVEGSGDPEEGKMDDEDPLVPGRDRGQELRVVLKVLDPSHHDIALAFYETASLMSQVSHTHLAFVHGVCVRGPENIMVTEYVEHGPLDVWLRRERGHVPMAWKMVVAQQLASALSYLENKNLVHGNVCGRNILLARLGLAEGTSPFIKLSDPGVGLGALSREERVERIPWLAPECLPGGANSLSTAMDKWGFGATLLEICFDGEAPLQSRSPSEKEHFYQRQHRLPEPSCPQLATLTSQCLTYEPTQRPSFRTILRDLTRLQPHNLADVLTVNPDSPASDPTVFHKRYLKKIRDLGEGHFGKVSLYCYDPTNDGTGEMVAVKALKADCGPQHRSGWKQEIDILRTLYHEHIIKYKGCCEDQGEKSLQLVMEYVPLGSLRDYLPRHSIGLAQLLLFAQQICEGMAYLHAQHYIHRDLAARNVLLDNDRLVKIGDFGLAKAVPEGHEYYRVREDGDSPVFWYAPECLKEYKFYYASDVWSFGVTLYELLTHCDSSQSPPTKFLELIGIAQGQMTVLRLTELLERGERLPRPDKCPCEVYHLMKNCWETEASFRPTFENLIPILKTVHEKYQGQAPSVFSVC
JAK1, sequence (P23458 whole entry): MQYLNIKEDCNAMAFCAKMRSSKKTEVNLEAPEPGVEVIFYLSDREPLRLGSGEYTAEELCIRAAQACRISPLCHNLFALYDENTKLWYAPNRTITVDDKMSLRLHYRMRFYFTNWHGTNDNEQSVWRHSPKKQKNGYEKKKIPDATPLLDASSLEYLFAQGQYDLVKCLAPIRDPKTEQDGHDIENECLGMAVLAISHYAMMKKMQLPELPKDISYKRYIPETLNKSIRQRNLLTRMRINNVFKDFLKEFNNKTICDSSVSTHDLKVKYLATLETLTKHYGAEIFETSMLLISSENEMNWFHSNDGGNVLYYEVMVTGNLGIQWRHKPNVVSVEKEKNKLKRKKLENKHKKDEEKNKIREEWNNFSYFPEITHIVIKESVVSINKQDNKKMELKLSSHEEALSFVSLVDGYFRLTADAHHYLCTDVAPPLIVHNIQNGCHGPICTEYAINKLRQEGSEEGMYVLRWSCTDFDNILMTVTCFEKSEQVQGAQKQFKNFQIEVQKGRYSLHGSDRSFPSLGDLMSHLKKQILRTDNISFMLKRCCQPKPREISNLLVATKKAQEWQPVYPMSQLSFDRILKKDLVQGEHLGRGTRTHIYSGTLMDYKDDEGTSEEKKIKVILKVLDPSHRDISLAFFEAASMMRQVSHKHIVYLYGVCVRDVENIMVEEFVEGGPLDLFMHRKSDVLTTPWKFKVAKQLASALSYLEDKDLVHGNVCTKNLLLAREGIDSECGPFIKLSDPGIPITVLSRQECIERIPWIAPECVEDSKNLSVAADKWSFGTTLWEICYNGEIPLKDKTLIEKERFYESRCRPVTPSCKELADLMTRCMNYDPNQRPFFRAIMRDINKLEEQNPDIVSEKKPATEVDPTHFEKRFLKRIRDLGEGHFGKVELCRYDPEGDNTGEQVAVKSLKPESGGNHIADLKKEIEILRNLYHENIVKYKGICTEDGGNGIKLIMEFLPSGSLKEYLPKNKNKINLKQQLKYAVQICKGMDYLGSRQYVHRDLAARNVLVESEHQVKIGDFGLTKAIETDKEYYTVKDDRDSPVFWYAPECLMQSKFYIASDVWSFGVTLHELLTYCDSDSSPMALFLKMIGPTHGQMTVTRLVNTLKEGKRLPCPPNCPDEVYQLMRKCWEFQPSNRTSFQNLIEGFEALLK
JAK2, sequence (O60674 whole entry): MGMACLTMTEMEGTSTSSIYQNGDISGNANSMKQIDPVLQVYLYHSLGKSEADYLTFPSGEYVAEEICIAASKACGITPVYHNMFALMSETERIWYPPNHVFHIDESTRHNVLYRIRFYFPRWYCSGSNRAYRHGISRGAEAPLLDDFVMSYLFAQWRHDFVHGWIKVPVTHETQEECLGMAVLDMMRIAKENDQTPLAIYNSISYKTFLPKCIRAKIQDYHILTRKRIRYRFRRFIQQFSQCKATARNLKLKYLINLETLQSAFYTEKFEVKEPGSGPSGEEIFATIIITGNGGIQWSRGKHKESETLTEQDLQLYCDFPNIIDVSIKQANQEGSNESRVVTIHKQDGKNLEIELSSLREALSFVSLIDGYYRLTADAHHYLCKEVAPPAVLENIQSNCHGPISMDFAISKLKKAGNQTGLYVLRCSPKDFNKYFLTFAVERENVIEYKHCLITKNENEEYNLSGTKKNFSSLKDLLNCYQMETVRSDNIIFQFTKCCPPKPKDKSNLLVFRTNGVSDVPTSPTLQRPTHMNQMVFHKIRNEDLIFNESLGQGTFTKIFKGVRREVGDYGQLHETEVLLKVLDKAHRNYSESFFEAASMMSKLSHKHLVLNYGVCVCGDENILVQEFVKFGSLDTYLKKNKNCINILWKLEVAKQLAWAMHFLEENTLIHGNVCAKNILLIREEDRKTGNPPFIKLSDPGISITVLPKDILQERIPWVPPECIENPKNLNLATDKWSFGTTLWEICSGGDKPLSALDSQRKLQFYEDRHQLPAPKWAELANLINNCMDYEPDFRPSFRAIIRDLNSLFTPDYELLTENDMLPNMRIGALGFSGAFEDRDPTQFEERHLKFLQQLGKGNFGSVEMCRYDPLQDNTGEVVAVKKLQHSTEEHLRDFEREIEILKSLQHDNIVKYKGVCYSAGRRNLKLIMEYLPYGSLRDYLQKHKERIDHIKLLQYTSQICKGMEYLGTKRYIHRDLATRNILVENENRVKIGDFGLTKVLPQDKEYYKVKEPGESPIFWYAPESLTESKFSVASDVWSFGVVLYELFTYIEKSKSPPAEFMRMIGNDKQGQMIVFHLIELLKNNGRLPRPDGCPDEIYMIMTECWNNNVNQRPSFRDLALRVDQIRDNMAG
JAK3, sequence (P52333 whole entry): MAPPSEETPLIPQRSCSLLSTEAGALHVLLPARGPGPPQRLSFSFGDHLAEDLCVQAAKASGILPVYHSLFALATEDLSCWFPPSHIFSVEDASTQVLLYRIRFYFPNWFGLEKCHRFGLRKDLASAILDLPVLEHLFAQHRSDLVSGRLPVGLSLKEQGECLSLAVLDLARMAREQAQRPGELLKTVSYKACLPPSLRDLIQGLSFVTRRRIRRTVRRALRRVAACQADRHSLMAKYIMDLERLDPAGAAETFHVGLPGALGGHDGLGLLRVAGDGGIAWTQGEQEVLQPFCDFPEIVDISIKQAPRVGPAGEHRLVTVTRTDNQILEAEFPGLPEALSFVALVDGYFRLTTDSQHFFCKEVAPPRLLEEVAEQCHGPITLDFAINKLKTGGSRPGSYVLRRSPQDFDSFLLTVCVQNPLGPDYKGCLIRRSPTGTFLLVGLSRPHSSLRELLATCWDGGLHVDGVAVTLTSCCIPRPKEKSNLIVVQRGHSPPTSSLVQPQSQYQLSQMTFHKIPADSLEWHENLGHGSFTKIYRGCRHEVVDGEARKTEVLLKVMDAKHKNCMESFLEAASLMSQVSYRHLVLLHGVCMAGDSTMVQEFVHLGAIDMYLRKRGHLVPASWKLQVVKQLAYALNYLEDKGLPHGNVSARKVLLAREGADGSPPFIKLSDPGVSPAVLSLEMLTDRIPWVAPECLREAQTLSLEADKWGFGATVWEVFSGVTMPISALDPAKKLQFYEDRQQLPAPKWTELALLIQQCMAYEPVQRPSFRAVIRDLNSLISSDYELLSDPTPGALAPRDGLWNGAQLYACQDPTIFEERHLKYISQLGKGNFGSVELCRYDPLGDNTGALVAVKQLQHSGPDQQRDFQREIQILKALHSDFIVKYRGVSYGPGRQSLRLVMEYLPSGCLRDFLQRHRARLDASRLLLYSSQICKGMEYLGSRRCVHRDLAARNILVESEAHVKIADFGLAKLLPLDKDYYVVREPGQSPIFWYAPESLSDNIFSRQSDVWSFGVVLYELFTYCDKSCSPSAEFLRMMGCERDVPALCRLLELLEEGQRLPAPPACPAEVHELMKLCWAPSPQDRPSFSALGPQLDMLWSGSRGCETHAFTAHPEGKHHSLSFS

Structure (SMILES) | JAK 1 (pKi) (JAK1) | JAK 2 (pKi) (JAK2) | Tyk 2 (pKi) (Tyk2) | JAK 3 (pKi) (JAK3) | HT-29 (pIC50) [1]
COc1cc(Nc2cc(CO)[nH]n2)nc(N(C)[C@@H]2C[C@H]3CCC[C@@H](C2)N3S(=O)(=O)CCC#N)n1 [Example 1-12, 3-(((1R,3s,5S)-3-((4-((5-(hydroxymethyl)-1H-pyrazol-3-yl)amino)-6-methoxypyrimidin-2-yl)(methyl)amino)-9-azabicyclo[3.3.1]nonan-9-yl)-sulfonyl)propanenitrile] | B (B represents a pKi value between 9 and 10 (Ki between 1 nM and 0.1 nM)) | B (B represents a pKi value between 9 and 10 (Ki between 1 nM and 0.1 nM)) | B (B represents a pKi value between 9 and 10 (Ki between 1 nM and 0.1 nM)) | C (C represents a pKi value between 8 and 9 (Ki between 10 nM and 1 nM)) | –
COc1cc(Nc2cc(CO)[nH]n2)nc(N(C)[C@@H]2C[C@H]3CCC[C@@H](C2)N3CCC#N)n1 [Example 2-5, 3-((1R,3s,5S)-3-((4-((5-(hydroxymethyl)-1H-pyrazol-3-yl)amino)-6-methoxypyrimidin-2-yl)(methyl)amino)-9-azabicyclo[3.3.1]nonan-9-yl)propanenitrile] | B (B represents a pKi value between 9 and 10 (Ki between 1 nM and 0.1 nM)) | B (B represents a pKi value between 9 and 10 (Ki between 1 nM and 0.1 nM)) | C (C represents a pKi value between 8 and 9 (Ki between 10 nM and 1 nM)) | D (D represents a pKi value between 7.5 and 8 (Ki between 31.6 nM and 10 nM)) | –
COc1cc(Nc2cc(CO)[nH]n2)nc(N(C)[C@@H]2C[C@H]3CCC[C@@H](C2)N3CC2(C#N)CC2)n1 [Example 2-6, 1-(((1R,3s,5S)-3-((4-((5-(hydroxymethyl)-1H-pyrazol-3-yl)amino)-6-methoxypyrimidin-2-yl)(methyl)amino)-9-azabicyclo[3.3.1]nonan-9-yl)methyl)cyclopropane-1-carbonitrile] | B (B represents a pKi value between 9 and 10 (Ki between 1 nM and 0.1 nM)) | B (B represents a pKi value between 9 and 10 (Ki between 1 nM and 0.1 nM)) | B (B represents a pKi value between 9 and 10 (Ki between 1 nM and 0.1 nM)) | C (C represents a pKi value between 8 and 9 (Ki between 10 nM and 1 nM)) | –
COc1cc(Nc2cc(CO)[nH]n2)nc(N(C)[C@@H]2C[C@H]3CCC[C@@H](C2)N3Cc2ccncc2)n1 [Example 2-7, (3-((6-methoxy-2-(methyl((1R,3s,5S)-9-(pyridin-4-ylmethyl)-9-azabicyclo[3.3.1]nonan-3-yl)amino)pyrimidin-4-yl)amino)-1H-pyrazol-5-yl)methanol] | B (B represents a pKi value between 9 and 10 (Ki between 1 nM and 0.1 nM)) | – | – | – | B (B represents a pIC50 value between 6.7 and 7.5 (IC50 between 200 nM and 32 nM))
COc1cc(Nc2cc(CO)[nH]n2)nc(N(C)[C@@H]2C[C@H]3CCC[C@@H](C2)N3Cc2ccnc(C#N)c2)n1 [Example 2-8, 4-(((1R,3s,5S)-3-((4-((5-(hydroxymethyl)-1H-pyrazol-3-yl)amino)-6-methoxypyrimidin-2-yl)(methyl)amino)-9-azabicyclo[3.3.1]nonan-9-yl)methyl)picolinonitrile] | B (B represents a pKi value between 9 and 10 (Ki between 1 nM and 0.1 nM)) | – | – | – | B (B represents a pIC50 value between 6.7 and 7.5 (IC50 between 200 nM and 32 nM))
COc1cc(Nc2cc(CO)[nH]n2)nc(N(C)[C@@H]2C[C@H]3CCC[C@@H](C2)N3C(=O)OCC(C)C)n1 [Example 3-2, isobutyl (1R,3s,5S)-3-((4-((5-(hydroxymethyl)-1H-pyrazol-3-yl)amino)-6-methoxypyrimidin-2-yl)(methyl)amino)-9-azabicyclo[3.3.1]nonane-9-carboxylate] | B (B represents a pKi value between 9 and 10 (Ki between 1 nM and 0.1 nM)) | B (B represents a pKi value between 9 and 10 (Ki between 1 nM and 0.1 nM)) | B (B represents a pKi value between 9 and 10 (Ki between 1 nM and 0.1 nM)) | – | –
COC(=O)N1[C@@H]2CCC[C@H]1C[C@H](N(C)c1nc(Nc3cc(CO)[nH]n3)cc(OC)n1)C2 [Example 3-3, methyl (1R,3s,5S)-3-((4-((5-(hydroxymethyl)-1H-pyrazol-3-yl)amino)-6-methoxypyrimidin-2-yl)(methyl)amino)-9-azabicyclo[3.3.1]nonane-9-carboxylate] | B (B represents a pKi value between 9 and 10 (Ki between 1 nM and 0.1 nM)) | B (B represents a pKi value between 9 and 10 (Ki between 1 nM and 0.1 nM)) | C (C represents a pKi value between 8 and 9 (Ki between 10 nM and 1 nM)) | – | –
COc1cc(Nc2cc(CO)[nH]n2)nc(N(C)[C@@H]2C[C@H]3CCC[C@@H](C2)N3C(=O)N2CCOCC2)n1 [Example 3-4, ((1R,3s,5S)-3-((4-((5-(hydroxymethyl)-1H-pyrazol-3-yl)amino)-6-methoxy-pyrimidin-2-yl)(methyl)amino)-9-azabicyclo[3.3.1]nonan-9-yl)(morpholino)methanone] | B (B represents a pKi value between 9 and 10 (Ki between 1 nM and 0.1 nM)) | B (B represents a pKi value between 9 and 10 (Ki between 1 nM and 0.1 nM)) | B (B represents a pKi value between 9 and 10 (Ki between 1 nM and 0.1 nM)) | – | –
COc1cc(Nc2cc(CO)[nH]n2)nc(N(C)[C@@H]2C[C@H]3CCC[C@@H](C2)N3C(=O)CC2CC2)n1 [Example 3-5, 2-cyclopropyl-1-((1R,3s,5S)-3-((4-((5-(hydroxymethyl)-1H-pyrazol-3-yl)amino)-6-methoxypyrimidin-2-yl)(methyl)amino)-9-azabicyclo[3.3.1]nonan-9-yl)ethan-1-one] | B (B represents a pKi value between 9 and 10 (Ki between 1 nM and 0.1 nM)) | B (B represents a pKi value between 9 and 10 (Ki between 1 nM and 0.1 nM)) | B (B represents a pKi value between 9 and 10 (Ki between 1 nM and 0.1 nM)) | – | –
COc1cc(Nc2cc(CO)[nH]n2)nc(N(C)[C@@H]2C[C@H]3CCC[C@@H](C2)N3C(C)=O)n1 [Example 3-6] | B (B represents a pKi value between 9 and 10 (Ki between 1 nM and 0.1 nM)) | B (B represents a pKi value between 9 and 10 (Ki between 1 nM and 0.1 nM)) | C (C represents a pKi value between 8 and 9 (Ki between 10 nM and 1 nM)) | – | –
COc1cc(Nc2cc(CO)[nH]n2)nc(N(C)[C@@H]2C[C@H]3CCC[C@@H](C2)N3C(=O)C2CCCC2)n1 [Example 3-7, cyclopentyl((1R,3s,5S)-3-((4-((5-(hydroxymethyl)-1H-pyrazol-3-yl)amino)-6-methoxypyrimidin-2-yl)(methyl)amino)-9-azabicyclo[3.3.1]nonan-9-yl)methanone] | B (B represents a pKi value between 9 and 10 (Ki between 1 nM and 0.1 nM)) | B (B represents a pKi value between 9 and 10 (Ki between 1 nM and 0.1 nM)) | B (B represents a pKi value between 9 and 10 (Ki between 1 nM and 0.1 nM)) | – | –
COc1cc(Nc2cc(CO)[nH]n2)nc(N(C)[C@@H]2C[C@H]3CCC[C@@H](C2)N3C(=O)C2CCC2)n1 [Example 3-8, cyclobutyl((1R,3s,5S)-3-((4-((5-(hydroxymethyl)-1H-pyrazol-3-yl)amino)-6-methoxypyrimidin-2-yl)(methyl)amino)-9-azabicyclo[3.3.1]nonan-9-yl)methanone] | B (B represents a pKi value between 9 and 10 (Ki between 1 nM and 0.1 nM)) | B (B represents a pKi value between 9 and 10 (Ki between 1 nM and 0.1 nM)) | B (B represents a pKi value between 9 and 10 (Ki between 1 nM and 0.1 nM)) | – | –

Source: patent publication US10028960B2, “Pyrimidine compounds as JAK kinase inhibitors” (THERAVANCE BIOPHARMA R&D IP, LLC, priority 2016, dated 2018)
